Measurements taken from US10351519B2, “Sulfamate derivative compounds, processes for preparing them and their uses” (BIO-PHARM SOLUTIONS CO., LTD., priority 2016, dated 2019).

How the values were obtained:
Format in all cases: in vivo
[1] = test system: ICR mice; test: Writhing test (0.6% acetic acid); conditions: for ED50: Mus musculus, po
Description: To examine the pain relief effect of the sulfamate compounds, a writhing test was conducted, referring to Fischer, L. G. et al. (2008).
ICR mice (male, 24-28 g; Orient Bio, Korea) were habituated before test in test room for 1 hour. Animals were fasted 2 hr, before administration of compounds. Each of Compounds was orally administered at the three dose, 10 ul/g, by bodyweight (All compounds were dissolved in a vehicle of 30% (v/v) PEG 400 or 20% (v/v) Tween 80. The control group was treated with the vehicle without compounds.
0.25-2 hour after the administration of Compounds, 0.6% acetic acid at the dose of 10 ul/g, by bodyweight was injected into the mice. Animals were habituated in the cage for 5 min. 5 min after habituation, the number of writhes (abdominal constriction) was conted for 15 min, referring to Korzeniewska-Rybicka, I. et al. (1998) and compared with that of a control.

[2] = test system: Sprague-Dawley rats; test: Antiallodynic activity on vincristine-induced pain model; conditions: intraperitoneally; for ED50: Rattus norvegicus, ip
Description: Male, Sprague-Dawley rats (160-180 g, Nara Bio, Korea) were habituated for 1 week before surgery and allowed free access to food and water throughout the experimentation. Room temperature and humidity were maintained at 24±2 and 50±10%, respectively.
The vincristine-induced pain model was established by the procedure of Natsuko et al. (2001) with minor modifications. Vincristine was intravenously infused continuously for 14 days using a mini-osmotic pump as follows: 30 ug/kg vincristine sulfate solution (Hospira, Australia) was diluted with 0.9% saline. The pumps (Alzet Model 2002, USA) were filled with the vincristine solution and primed by incubation at 37 for 4 hours before the infusion. Briefly, animal were put under gaseous anesthesia with isoflurane. A catheter made from PE-60 tube was inserted into an external jugular vein in rat. Sham controls were prepared in the same manner, with the external jugular vein exposed, but with the external jugular vein not cut down. […]
Tactile sensitivity (Mechanical allodynia) was evaluated using von Frey monofilaments before and after treatment, and animals were used withdrawal threshold value was less than 4 g. […] The tactile sensitivity for ipsilateral hind paw was measured using the up-and-down method (Dixon, 1980) with seven von Frey monofilaments (0.4, 1, 2, 4, 6, 8, and 15 g) to 3 trials. […] The 50% paw withdrawal threshold for each paw was calculated using the following formula: [Xth] log=[vFr] log+ky where [vFr] is the force of the last von Frey used, k=0.2249 which is the average interval (in log units) between the von Frey monofilaments, and y is a value that depends upon the pattern of withdrawal responses (Dixon, 1980).
Antiallodynic effect of compound was evaluated at the three dose, intraperitoneally administrated in a volume of 5 ul/g, bw in a vehicle of 30% (v/v) PEG or 20% (v/v) Tween 80. […]
The relative values compared to the sham (% control) were calculated and shown in Table 5, which show an antiallodynic effect of Compound 2&7 on vincristine-induced pain model in rats.

[3] = test system: ICR mice; test: Chemical induced seizure model (strychnine); conditions: intraperitoneal
Description: Male ICR mice (purchased from Orient Bio Inc. Korea) of body weight 19-27 g were used for these studies. The test materials were administered intraperitoneal route in a volume of 10 ul/g weight. Pharmacological effects of all the test materials were evaluated to compared test groups (n=6) with a control group (n=6). Control group was administrated vehicle, only. The peak time was determined by administration test material's random dose for 0.5, 1, 2 hour. The time that the most protect was defined peak time and ED50 was determined by other dose administration at peak time. Strychnine was dissolved in 0.9% saline and administered intraperitoneally (i.p.) at its CD97 (convulsive dose 97%) the dose of strychnine that produced clonic seizures in 97% in a volume of 10 ul/g body weight. The animals were then transferred to observation cages and observed continuously for 30 min. Clonic seizure was elicited in approximately 95% of control group. Protection was defined as complete absence of a clonic seizure over the 30-min observation period. The time that the most protect was defined peak time and ED50 was determined by other dose administration at peak time. The effective dose of compound necessary to protect against seizures to 50% of controls (i.e. ED50) was determined by log probit analysis using Excel 2007 (Microsoft).

| Structure (SMILES) | Writhing test(po) Peak Time [1] [h] | ED50 [1] [mg/kg] | ED50 [2] [mg/kg] | ED50 ([3]; Mus musculus, ip, read-out: Strychnine test ED50) [mg/kg] | Strychnine test Peak Time [3] [h] | Vincristine-induced pain model Peak Time [2] [h] |
| --- | --- | --- | --- | --- | --- | --- |
| C[C@@H](OS(N)(=O)=O)[C@H](O)c1c(Cl)cccc1Cl [Example 8, (1R, 2R)-1-(2,6-dichlorophenyl)-1-hydroxypropan-2-yl sulfamate] | 0.25 | 50.6 |  |  |  |  |
| C[C@@H](OS(N)(=O)=O)[C@H](O)c1ccccc1Cl [Example 2, (1R, 2R)-1-(2-chlorophenyl)-1-hydroxypropan-2-yl sulfamate] |  |  | > 20 |  |  |  |
| C[C@H](OS(N)(=O)=O)[C@@H](O)c1c(Cl)cccc1Cl [Example 7, (1S, 2S)-1-(2,6-dichlorophenyl)-1-hydroxypropan-2-yl sulfamate] | 0.5 | 69.6 | 10.3 | 75.8 | 0.5 | 0.5 |
